Assay results as given in patent publication US20110190215A1, “THERAPEUTIC USE OF PEPTIDES” (priority 2008, published 2011).
Entries after “also recorded” stand apart in the source; their conditions may differ. Where no end group is shown, it is not given here.

Key:
[1] = Body weight of mice on high-fat diet (HFD) co-administered peptides; format: in vivo; settings: for body weight gain compared to control fed with HFD alone: peptide co-administered with HFD for 10 months; for body weight: peptide co-administered with high-fat diet (HFD) for 10 months, HFD control 54.7 g, regular diet 29.8 g
[2] = test system: Bleomycin hydrolase; experiment: Microarray gene expression in peptide-treated TR146 cells: bleomycin hydrolase; format: cell-based; settings: TR146 buccal mucosal cells, 2.0 μM peptide, 6 hours, vs mock-treated, Affymetrix Human Genome Focus Array
Procedure: (§1) TR146 buccal mucosal cells, obtained from Cancer Research U.K., were propagated in Dulbecco's modified Eagle medium (DMEM) high glucose (Gibco). The culture medium supplemented with 3.7 mg/ml NaHCO3, 10% FCS, 50 units/ml penicillin G, and […] streptomycin sulphate. Cells were passaged when 90% confluence was reached. The medium was discarded, and cells were washed twice with sterile DPBS (without calcium and magnesium, Cellgro) and 0.25% trypsin-EDTA solution (Gibco) was added. The flask was placed at 37° C. for 10 minutes and then detached cells were suspended in growth medium and seeded in new flasks (dishes micro-well plates).
(§2) For microarray analysis, cells at 75-80% confluence in T75 flasks were treated with equimolar (2.0 μM) concentrations of a peptide consisting of the sequence […] (SEQ ID NO 1). […]
(§3) Total RNAs were isolated with an Ambion RNAqueous Kit, and cDNAs were synthesized and purified for Affymetrix GeneChip® Human Genome Focus Array analysis. Raw data were analyzed by the Affymetrix NetAFFX Analysis Center online tools.
(§4) The nature of change of gene expression profile in response to the peptide consisting of the sequence […] (SEQ ID NO 1) was determined. […]
(§5) The nature of change of gene expression profile in response to each of the peptides consisting of the sequence RMPLPPRGCPAAAPWS (SEQ ID NO 10) or […] (SEQ ID NO 1) was determined. […]

[3] = test system: glutamate receptor, ionotropic, N-methyl D-aspartate 2A; experiment: Microarray gene expression in peptide-treated TR146 cells: NMDA 2A glutamate receptor; format: cell-based; settings: TR146 buccal mucosal cells, 2.0 μM peptide, 6 hours, vs mock-treated, Affymetrix Human Genome Focus Array
Procedure: as §1, §2, §3, §4, §5

[4] = test system: glutamate receptor, metabotropic 7; experiment: Microarray gene expression in peptide-treated TR146 cells: metabotropic glutamate receptor 7; format: cell-based; settings: TR146 buccal mucosal cells, 2.0 μM peptide, 6 hours, vs mock-treated, Affymetrix Human Genome Focus Array
Procedure: as §1, §2, §3, §4, §5

[5] = test system: glutamate receptor, metabotropic 8; experiment: Microarray gene expression in peptide-treated TR146 cells: metabotropic glutamate receptor 8; format: cell-based; settings: TR146 buccal mucosal cells, 2.0 μM peptide, 6 hours, vs mock-treated, Affymetrix Human Genome Focus Array
Procedure: as §1, §2, §3, §4, §5

[6] = test system: brain glutamate decarboxylase 2; experiment: Microarray gene expression in peptide-treated TR146 cells: brain glutamate decarboxylase 2; format: cell-based; settings: TR146 buccal mucosal cells, 2.0 μM peptide, 6 hours, vs mock-treated, Affymetrix Human Genome Focus Array
Procedure: as §1, §2, §3, §4, §5

[7] = test system: Apolipoprotein E (APOE) and receptors; experiment: Microarray gene expression in peptide-treated TR146 cells: APOE and receptors; format: cell-based; settings: TR146 buccal mucosal cells, 2.0 μM peptide, 6 hours, vs mock-treated, Affymetrix Human Genome Focus Array
Procedure: as §1, §2, §3, §4, §5

[8] = test system: TR146 buccal mucosal cells; experiment: Microarray gene expression profile of peptide-treated TR146 cells (number of genes altered); format: cell-based, human; settings: 2.0 μM peptide, 6 hours
Procedure: as §1
(§6) For microarray analysis, cells at 75-80% confluence in T75 flasks were treated with equimolar (2.0 μM) concentrations of a peptide consisting of the sequence […] (SEQ ID NO 1). Mock-treated cells received same volume of solvent. After 6 hours the cells were washed twice with DPBS, trypsinized, suspended in 5 ml growth media and centrifuged (800 g for 10 minutes). Cells were resuspended in 5 ml DPBS and centrifuged again. Cell pellets were used for RNA isolation.
as §3
The nature of change of gene expression profile in response to the peptide consisting of the sequence […] (SEQ ID NO 1) was determined. Four result files were generated: 1. Molecular networks; 2. Biological functions and diseases; 3. Metabolic-, signalling-, and other molecular pathways; 4. Network node molecule lists. Fischer's exact test was used to calculate a p-value determining the probability that each biological function and/or disease assigned to that data set is due to chance alone.

[9] = test system: leptin; experiment: Proteomic microarray (antibody membrane, chemiluminescence): leptin protein expression in TR146 cells; format: cell-based; settings: TR146 buccal mucosal cells, 2.0 μM peptide, 24 hours, vs mock-treated
Procedure: as §1
as §6, with “For proteomic” for “For”, “sequence FVAPFPEVFGKEKV (SEQ ID NO 2), […] (SEQ ID NO 3), GPVRGPFPI (SEQ ID NO 4), EPVLGPVRGPFPI (SEQ ID NO 5), VPYPQRDMPIQ (SEQ ID NO 6), […] (SEQ ID NO 7), EPVLGPVR (SEQ ID NO 8) and” for “sequence”, “24” for “6”, “again.” for “again. Cell pellets were used for RNA isolation.”
Antibodies specific to leptin were immobilised on the surface of a membrane. Sample extracts of cell samples each treated with peptides of amino acid sequences SEQ ID NO 1, 2, 3, 4, 5, 6, 7 and 8 were incubated with the membranes. Biotinylated antibodies, specific to leptin-antibody complexes, were then incubated with the membranes. Bound leptin was quantified by measuring chemiluminescence.

[10] = test system: Resistin; experiment: Microarray gene expression in peptide-treated TR146 cells: resistin; format: cell-based; settings: TR146 buccal mucosal cells, 2.0 μM peptide, 6 hours, vs mock-treated, Affymetrix Human Genome Focus Array
Procedure: as §1
(§7) For microarray analysis, cells at 75-80% confluence in T75 flasks were treated with equimolar (2.0 μM) concentrations of peptides. Mock-treated cells received same volume of solvent. After 6 hours the cells were washed twice with DPBS, trypsinized, suspended in 5 ml growth media and centrifuged (800 g for 10 minutes). Cells were resuspended in 5 ml DPBS and centrifuged again. Cell pellets were used for RNA isolation.
as §3
(§8) The nature of change of gene expression profile in response to the peptide was determined. […]

[11] = test system: Renin (angiotensinogenase); experiment: Microarray gene expression in peptide-treated TR146 cells: renin; format: cell-based; settings: TR146 buccal mucosal cells, 2.0 μM peptide, 6 hours, vs mock-treated, Affymetrix Human Genome Focus Array
Procedure: as §1, §7, §3, §8

[12] = test system: Amyloid Beta (A4) Precursor Protein (APP); experiment: Microarray gene expression in peptide-treated TR146 cells: APP; format: cell-based; settings: TR146 buccal mucosal cells, 2.0 μM peptide, 6 hours, vs mock-treated, Affymetrix Human Genome Focus Array
Procedure: as §1
(§9) For microarray analysis, cells at 75-80% confluence in T75 flasks were treated with equimolar (2.0 μM) concentrations of a peptide consisting of the sequence RMPLPPRGCPAAAPWS (SEQ ID NO 10) or […] (SEQ ID NO 1). Mock-treated cells received same volume of solvent. […]
as §3, §5

[13] = test system: Stathmin-1; experiment: Microarray gene expression in peptide-treated TR146 cells: Stathmin-1; format: cell-based; settings: TR146 buccal mucosal cells, 2.0 μM peptide, 6 hours, vs mock-treated, Affymetrix Human Genome Focus Array
Procedure: as §1, §9, §3, §5

[14] = test system: protein-tyrosine phosphatase, receptor-type, F; experiment: Microarray gene expression in peptide-treated TR146 cells: protein-tyrosine phosphatase, receptor-type, F; format: cell-based; settings: TR146 buccal mucosal cells, 2.0 μM peptide, 6 hours, vs mock-treated, Affymetrix Human Genome Focus Array
Procedure: as §1, §9, §3, §5

[15] = test system: rho 2; experiment: Microarray gene expression in peptide-treated TR146 cells: rho 2; format: cell-based; settings: TR146 buccal mucosal cells, 2.0 μM peptide, 6 hours, vs mock-treated, Affymetrix Human Genome Focus Array
Procedure: as §1
(§10) For microarray analysis, cells at 75-80% confluence in T75 flasks were treated with equimolar (2.0 μM) concentrations of peptide of SEQ ID NO 5. Mock-treated cells received same volume of solvent. After 6 hours the cells were washed twice with DPBS, trypsinized, suspended in 5 ml growth media and centrifuged (800 g for 10 minutes). Cells were resuspended in 5 ml DPBS and centrifuged again. […]
(§11) RNA isolation for Microarray Procedure Total RNAs were isolated with an Ambion RNAqueous Kit, and cDNAs were synthesized and purified for Affymetrix GeneChip® Human Genome Focus Array analysis. Raw data were analyzed by the Affymetrix NetAFFX Analysis Center online tools.
as §8

[16] = test system: gamma-aminobutyric acid A receptor (GABAAR); experiment: Microarray gene expression in peptide-treated TR146 cells: GABA A receptor; format: cell-based; settings: TR146 buccal mucosal cells, 2.0 μM peptide, 6 hours, vs mock-treated, Affymetrix Human Genome Focus Array
Procedure: as §1, §10, §11, §8

[17] = test system: beta 2 gamma-aminobutyric acid receptor, theta; experiment: Microarray gene expression in peptide-treated TR146 cells: beta 2 GABA receptor, theta; format: cell-based; settings: TR146 buccal mucosal cells, 2.0 μM peptide, 6 hours, vs mock-treated, Affymetrix Human Genome Focus Array
Procedure: as §1, §10, §11, §8

[18] = test system: glutamate decarboxylase 2 (pancreatic islets, lung and brain, 65 kDa); experiment: Microarray gene expression in peptide-treated TR146 cells: glutamate decarboxylase 2 (65 kDa); format: cell-based; settings: TR146 buccal mucosal cells, 2.0 μM peptide, 6 hours, vs mock-treated, Affymetrix Human Genome Focus Array
Procedure: as §1, §10, §11, §8

## RGPFPIIV (listed as Ovis sp.) [SEQ ID NO 9, peptide said to be homologous with positions 202-209 of casein alpha S-1]
[1]
  body weight gain compared to control fed with HFD alone: lower
  body weight: 51.1 g

## RPKHPIKHQGLPQEVLNENLLRF [SEQ ID NO 1]
[2]
  gene expression of bleomycin hydrolase: Upregulation; also recorded: upregulated
[3]
  gene expression of glutamate receptor, ionotropic, N-methyl D-aspartate 2A: Downregulation; also recorded: down-regulated
[4]
  gene expression of glutamate receptor, metabotropic 7: Downregulation; also recorded: down-regulated
[5]
  gene expression of glutamate receptor, metabotropic 8: Downregulation; also recorded: down-regulated
[6]
  gene expression of brain glutamate decarboxylase 2: Downregulation; also recorded: down-regulated
[7]
  gene expression of Apolipoprotein E (APOE) and receptors: Downregulation; also recorded: down-regulated
[8]
  number of genes down-regulated: 296 genes
  number of genes up-regulated: 101 genes
[8]; total altered
  number of genes with altered expression: ~400 genes
[9]
  protein expression of leptin: upregulated

## VPYPQRDMPIQ (listed as Ovis sp.) [SEQ ID NO 6, peptide homologous with positions 178-188 of casein beta]
[9]
  protein expression of leptin: upregulated

## EPVLGPVR (listed as Ovis sp.) [SEQ ID NO 8, peptide homologous with positions 195-202 of casein beta]
[9]
  protein expression of leptin: upregulated

## SLSQSKVLPVPQKAVPYPQRDMPIQ (listed as Ovis sp.) [SEQ ID NO 7, peptide homologous with positions 164-188 of casein beta]
[9]
  protein expression of leptin: upregulated

## FVAPFPEVFGKEKV (listed as Ovis sp.) [SEQ ID NO 2, peptide homologous with positions 39 to 52 of casein alpha S-1]
[10]
  gene expression of resistin: down-regulated
[11]
  gene expression of renin (angiotensinogenase): down-regulated
[9]
  protein expression of leptin: upregulated
[1]
  body weight gain compared to control fed with HFD alone: lower
  body weight: 52.1 g

## SDIPNPIGSENSEKTTMPLW (listed as Ovis sp.) [SEQ ID NO 3, peptide homologous with positions 195-214 of casein alpha S-1]
[9]
  protein expression of leptin: upregulated

## RMPLPPRGCPAAAPWS (listed as Ovis sp.) [SEQ ID NO 10]
[12]
  gene expression of Amyloid Beta (A4) Precursor Protein (APP): downregulated
[13]
  gene expression of Stathmin-1: upregulated
[14]
  gene expression of protein-tyrosine phosphatase, receptor-type, F: downregulated
[1]
  body weight gain compared to control fed with HFD alone: lower
  body weight: 50.1 g

## GPVRGPFPI (listed as Ovis sp.) [SEQ ID NO 4, peptide homologous with positions 199-207 of casein beta]
[9]
  protein expression of leptin: upregulated

## EPVLGPVRGPFPI (listed as Ovis sp.) [SEQ ID NO 5, peptide homologous with positions 195 to 207 of casein beta]
[15]
  gene expression of rho 2: downregulated
[16]
  gene expression of gamma-aminobutyric acid A receptor (GABAAR): downregulated
[17]
  gene expression of beta 2 gamma-aminobutyric acid receptor, theta: downregulated
[18]
  gene expression of glutamate decarboxylase 2 (pancreatic islets, lung and brain, 65 kDa): downregulated
[9]
  protein expression of leptin: upregulated
